Data on three compounds can be found in US9585389B2, “Microbicidal composition” (Dow Global Technologies LLC, priority 2013, dated 2017).

Like-named read-outs stand apart in the source and are kept apart here. Where only a bound is given, the exact number is not on record here.

In data set [1] the test system is Aspergillus niger ATCC#16404. Briefly: MIC / synergy index test in 96 well microtiter plates. The format is cell-based. Conditions: ATCC16404, read-out: CB (MIC of compound B alone). How it is done:
(§1) Surfactants and biocides were evaluated for synergy by determining the synergy index (S.I.) of the combination. Synergy index was calculated based on minimum inhibitory concentrations (MIC) of two antimicrobial compounds (A and B) alone and in combinations. The tests organisms were Gram negative bacteria (Pseudomonas aeruginosa ATCC #15442),
(§2) Gram positive bacteria (Staphylococcus aureus ATCC #6538), yeast (Candida albicans ATCC#10203) and mold (Aspergillus niger ATCC#16404). Contact time for the bacteria was 24 and 48 hours, yeast was 48 and 72 hrs, and 3 and 7 days for mold. The test was carried out in 96 well microtiter plates. • Surf. A R^1O(CH2CH(CH3)o)5(CH2CH2O)9H, where R^1 is 2-ethylhexyl • Surf. D R^2O(CH2CH(CH3)o)3(CH2CH2O)5H • Surf. E R^2O(CH2CH(CH3)o)3(CH2CH2O)7H • In Surf. D and Surf. E, R^2 is a mixture of C8-C14 linear alkyl groups (70% C8-C10 linear alkyl and 30% C12-C14 linear alkyl)
(§3) The pH of the Triptic soy broth was 7.3 and the Potato dextrose broth was 5.1.
(§4) SI is calculated as follows: Ca/CA+Cb/CB=Synergy Index (“SI”)
(§5) Wherein: • CA=concentration of compound A in ppm, acting alone, which produced an end point (MIC of Compound A). • Ca=concentration of compound A in ppm, in the mixture, which produced an end point. • CB=concentration of compound B in ppm, acting alone, which produced an end point (MIC of Compound B). • Cb=concentration of compound B in ppm, in the mixture, which produced an end point. When the sum of Ca/CA and Cb/CB is greater than one, antagonism is indicated.

Data set [2] relates to Candida albicans ATCC#10203. Described as above. It counts as cell-based. As to conditions: ATCC10203, 48 h, read-out: CB (MIC of compound B alone). How it is done: as §1, §2, §3, §4, §5
For data set [3], the system named is Staphylococcus aureus ATCC #6538. The description is as above. The format is cell-based. As to conditions: 1/10 TSB; for MIC: Staphylococcus aureus, ATCC6538, 24 h, Phenoxyethanol alone. The method, then:
as §1, §2, §3, §4, §5

For data set [4], the system named is Pseudomonas aeruginosa ATCC #15442. The description is as above. The format is cell-based. Conditions: 1/10 TSB; for MIC: Pseudomonas aeruginosa, ATCC15442, 24 h, Phenoxyethanol alone, read-out: CB (MIC of compound B alone). The method, then:
as §1, §2, §3, §4, §5

Data set [5] is described as follows: Stability Testing of phenoxyethanol/surfactant solutions. It counts as physicochemical. Conditions: 33% phenoxyethanol in 70% isopropanol with surfactant, PE:Surfactant 1:27. The method, then: A solution of phenoxyethanol in 70% (v/v) isopropanol was made and diluted with surfactant to give the desired ratios of biocide to surfactant. Additional 70% isopropanol was added as needed to give a 33 wt % solution of phenoxyethanol. The samples were split into three vials. One vial was stored at room temperature, one was stored at 40 C and one was stored at 50 C. […] Samples that were cloudy or highly discolored were determined to be unstable.

Regarding `OCCOc1ccccc1` [Phenoxyethanol, 2-phenoxy-1-ethanol], the MIC amounted to 4000 µg/mL in data set [1]; 4000 µg/mL in data set [2]; 8000 µg/mL in data set [3] (series with Surf. A, inoculum 1.156E-+06CFU/ml, read-out: CB (MIC of compound B alone)); 10000 µg/mL in data set [3] (series with Surf. D, inoculum 1.808E+05, read-out: CB (MIC of compound B alone)); 8000 µg/mL in data set [3] (series with Surf. E, inoculum 1.808E+06CFU/ml, read-out: CB (MIC of compound B alone)); 5000 µg/mL in data set [4] (series with Surf. A, inoculum 8.134E+07CFU/ml). Moreover, the minimal inhibitory concentration (MIC) in data set [4] (series with Surf. D, inoculum 1.16E+05CFU/ml) is 4000 µg/mL; in data set [4] (series with Surf. E, inoculum 5.727E+07CFU/ml) it was 4000 µg/mL.

In the case of `CCCCC(CC)COCC(C)OCC(C)OCC(C)OCC(C)OCC(C)OCCOCCOCCOCCOCCOCCOCCOCCOCCO` (centres unmarked) [Surf. A, R^1O(CH2CH(CH3)o)5(CH2CH2O)9H, where R^1 is 2-ethylhexyl], the “CA (MIC of compound A alone)” value was over 20000 ppm in data set [3] (Surf. A alone, 24 hrs, inoculum 1.156E-+06CFU/ml) and over 20000 ppm in data set [4] (Surf. A alone, 24 hrs, inoculum 8.134E+07CFU/ml).

POLYSORBATE 20: the “Stability (appearance)” value in data set [5] (Day 2, 40° C.) is recorded as “Slightly”; in data set [5] (Day 2, 50° C.) it was “Slightly”; in data set [5] (Day 7, 40° C.) it was “Slightly”; in data set [5] (Day 7, 50° C.), “Slightly”.
